Reference: PubChem BioAssay AID720512 (Broad Institute, 2013)
Active and inactive are the calls of the source. How the calls were made is not given here.

target: Toxin B (TcdB) glycohydrolase, Clostridioides difficile 630; experiment: TcdB glycohydrolase inhibitors, dose response, biochemical, cherry-pick, plate reader (AID 720512); details: recombinant TcdB glycohydrolase activity

Row | SMILES | AC50
1 | S=C(NCCN1CCOCC1)Nc1ccc(Nc2ccccc2)cc1 | > 39 µM (inactive)
2 | CCNC(=O)C[C@H]1CC[C@@H]2[C@H](COc3ccc(NC(=O)c4ccc5c(c4)OCO5)cc3C(=O)N2C)O1 | > 42 µM (inactive)
3 | COCC(=O)N1CC[C@H]2[C@@H]1c1cc(-c3ccc(OC)cc3)ccc1N(C)[C@H]2CO | > 39 µM (inactive)
4 | CC1=NCCc2c1[nH]c1cc(O)ccc21 | 9.94 µM
5 | CCn1c(=S)[nH]c2c(=O)n(C)c(=O)n(C)c21 | 10.8 µM
6 | O=C1Nc2ccc(Br)cc2C1Cc1ccccc1F (stereo unspecified) | > 39 µM (inactive)
7 | CCNC(=O)C[C@H]1CC[C@@H]2[C@@H](COc3ccc(NC(=O)c4ccc5c(c4)OCO5)cc3C(=O)N2C)O1 | > 39 µM (inactive)
8 | ON=C1c2ccccc2-c2ccc(O)cc21 | 22 µM
9 | CNc1cncc(-c2ccc(O)cc2)n1 | > 39 µM (inactive)
10 | C[N+]1(CCCCSc2ccc(O)cc2)CCCCC1 | > 39 µM (inactive)
11 | Cc1ccc(-n2c(SCC(=O)O)nc3c(sc(=S)n3-c3ccc(C)c(C)c3)c2=O)cc1 | > 39 µM (inactive)
12 | CCCNC(=O)C[C@H]1CC[C@@H]2[C@@H](COc3ccc(NC(=O)c4ccc5c(c4)OCO5)cc3C(=O)N2C)O1 | > 39 µM (inactive)
13 | Cc1ccc(C(=O)Nc2scc(-c3ccccc3)c2C(=O)O)cc1 | > 39 µM (inactive)
14 | Cc1ccc(S(=O)(=O)N2CC(CBr)=CCC2c2ccccc2)cc1 (stereo unspecified) | > 39 µM (inactive)
15 | CC(C)NC(=O)N1CC[C@@H]2[C@@H](CO)N(C)c3ccc(-c4ccc(F)cc4)cc3[C@@H]21 | > 42 µM (inactive)
16 | CCOC(=O)c1[nH]nc(-c2cc(CC)c(O)cc2O)c1-c1cscn1 | > 39 µM (inactive)
17 | FC(F)(F)c1cc(CCN2CCNC[C@H]2Cc2cccc3ccccc23)cc(C(F)(F)F)c1 | > 39 µM (inactive)

same assay, conditions: recombinant TcdB glycohydrolase activity, at 3.5 µM (top of the series)

Row | SMILES | activity change, negative = inhibition
18 | CO[C@@H]1CN(C)C(=O)c2cc(NC(=O)NC(C)C)ccc2OC[C@@H](C)N(S(C)(=O)=O)C[C@H]1C | inactive

same assay, conditions: recombinant TcdB glycohydrolase activity, at 19.5 µM (top of the series)

Row | SMILES | activity change, negative = inhibition
19 | COc1ccccc1-n1c(SCC(=O)O)nc2c(sc(=S)n2-c2ccc(Cl)c(C)c2)c1=O | inactive
20 | O=C(NC(=S)Nc1ccc(O)cc1)c1cncc(Br)c1 | inactive
21 | COCCNc1cc(N)c([N+](=O)[O-])cc1[N+](=O)[O-] | inactive
22 | O=S(=O)(Cc1cccc(F)c1)c1c[nH]c2ccccc12 | inactive
23 | COc1ccc(NC2CCCN(C(=O)CN3CCOC3=O)C2)cc1OC (stereo unspecified) | inactive
24 | CCOc1cc(NC(=S)NCC2CCCO2)c(OCC)cc1NC(=O)c1ccc(F)cc1 (stereo unspecified) | inactive
25 | COc1cc(/C=C(/NC(=O)c2ccccc2)C(=O)Nc2ccc(O)cc2)c([N+](=O)[O-])cc1OC | inactive
26 | COc1cc2ccccc2cc1C(=O)N/N=C/c1cccs1 | inactive
27 | Cc1ccc(S(=O)(=O)/N=C(/Nc2cccc(O)c2)c2ccccc2)cc1 | inactive
28 | O=C(Nc1ccc2c(c1)OCCO2)c1cc2ccccc2o1 | inactive
29 | O=C(NCCc1cccc(Cl)c1)c1ccc(Cl)c([N+](=O)[O-])c1 | inactive
30 | COc1ccc(CNC(=O)Cc2cn(C)c3ccccc23)c(OC)c1 | inactive
31 | CCOC(=O)N1CCN=C1SCc1ccc(Cl)c(Cl)c1 | inactive
32 | CCOC(=O)c1nnn(-c2nonc2N)c1-c1ccc(F)cc1 | inactive
33 | COc1ccc(C2=NS(=O)(=O)N(C)C(C(=O)N3CCOCC3)=C2)cc1 | inactive
34 | COCCNc1oc(/C=C/c2ccccc2)nc1C#N | inactive
35 | O=C(NCc1cccnc1)c1cc(C2CCCCN2S(=O)(=O)c2cccc3cccnc23)on1 (stereo unspecified) | inactive
36 | O=C(C[C@@H]1CC[C@@H]2[C@H](COC[C@@H](O)CN2C(=O)c2ccccn2)O1)NC1CCC1 | inactive
37 | COc1ccc(Cl)cc1NC(=O)Cn1c(NCCO)nc2ccccc21 | inactive
38 | CN(C)c1ccc(Cl)c(NC(N)=S)c1 | inactive
39 | CCOC(CCNC(=O)c1cn(CCOC)c(=O)c2c1c1ccccc1n2C)OCC | inactive
40 | COC(=O)C1=C(c2ccc(F)cc2OCc2ccccc2)C[C@@H]2CC[C@H]1N2C(=O)NCCOc1ccccc1 | inactive
41 | C[C@H](NC(=O)c1cc2c(cn1)[nH]c1ccccc12)C(=O)O | inactive
42 | NC1=NC[C@H](Cc2ccc(O)cc2)N1CCc1cc(C(F)(F)F)cc(C(F)(F)F)c1 | inactive
43 | O=C(O)c1cc(S(=O)(=O)Nc2ccc3cn[nH]c3c2)ccc1Cl | inactive

Row | SMILES | activity change, negative = inhibition
44 | COc1ccc(C2=NS(=O)(=O)N(C)C(C(=O)NC(C)c3ccccc3)=C2)cc1OC (stereo unspecified) | inactive
45 | CC(N)C(=O)NC(C(=O)N1CCCC1C(=O)NC(c1ccccc1)c1ccccc1)C(C)C (stereo unspecified) | inactive
46 | COc1ccc(C(=O)NC(C(=O)NCc2ccccc2OC)C(C)C)cc1 (stereo unspecified) | inactive
47 | Clc1cccc(-c2ccc3ncnc(NCc4cccs4)c3c2)c1 | inactive
48 | COc1ccc(CNC(=O)C2CCN(S(=O)(=O)c3c(C)noc3/C=C/N(C)C)CC2)cc1 | inactive
49 | COc1ccccc1C(=O)Nc1cccc(Oc2c(F)c(F)c(F)c(F)c2F)c1 | inactive
50 | O=c1c2ccccc2oc2ccc(NCCCN3CCOCC3)cc12 | inactive
51 | CN(c1ccc(O)cc1)c1nc(-c2cccnc2)cs1 | inactive
52 | Cc1nn(C2CC(O)C(O)C(CO)O2)c(=O)[nH]c1=O (stereo unspecified) | inactive
53 | CC[C@H](C)[C@H]1CNC(=S)N1CC1CCN(CCCC2CCCC2)CC1 | inactive
54 | COc1cc(/C=C/C(=O)c2ccc([N+](=O)[O-])o2)ccc1O | inactive
55 | COc1cc(/C=N/Nc2ccccn2)ccc1O | inactive
56 | NS(=O)(=O)c1ccc(NC(=S)NCc2ccc3c(c2)OCO3)cc1 | inactive
57 | O=C(Cc1ccccc1)NNC(=S)NC(=O)c1cccnc1 | inactive
58 | COc1cc(/C=N/NC(=O)CSc2ccccn2)ccc1O | inactive
59 | CCc1ccccc1NC(=O)CN1CCN(CC(=O)NCc2ccc(Cl)cc2)CC1 | inactive
60 | CC(Oc1ccc(Cl)cc1Cl)C(=O)Nc1ccc(O)cc1 (stereo unspecified) | inactive
61 | COc1ccc(S(=O)(=O)Nc2ccc3oc(C)c(C(=O)O)c3c2)cc1 | inactive
62 | CCCCCCCN1C(N(C)C)=NC[C@@H]1Cc1ccccc1 | inactive
63 | Cn1c(=O)c2c([nH]c(=S)n2Cc2ccc(Cl)cc2)n(C)c1=O | inactive
64 | C=CCn1c(SCC(=O)N2CC(=O)Nc3ccccc32)nc2scc(-c3ccccc3)c2c1=O | inactive
65 | CCCC(=O)Nc1ccc2c(c1)OC[C@H](C)N(CC1CCCC1)C[C@H](C)[C@@H](OC)CN(C)C2=O | inactive
66 | O=C(N/N=C/c1ccc(O)cc1)NC12CC3CC(CC(C3)C1)C2 | inactive
67 | CCc1cc(/C(Cc2ccccn2)=N\O)c(O)cc1O | inactive
68 | COc1ccc(C(=O)N2CCOCC2)cc1S(=O)(=O)N1CCCc2ccccc21 | inactive

Row | SMILES | activity change, negative = inhibition
69 | CCOCCCNC(=O)C1CCN(S(=O)(=O)c2c(C)noc2/C=C\c2ccc(OC)cc2)CC1 | inactive
70 | Cc1cc(SCC(=O)N/N=C/c2ccco2)nc2ccccc12 | inactive
71 | COc1ccc(NC(c2ccccc2)c2ccncc2)cc1 (stereo unspecified) | inactive
72 | Oc1ccc2c(ccc3[nH]cnc32)c1 | inactive
73 | O=c1oc(-c2ccc(Br)cc2)nc2ccccc12 | inactive
74 | O=C(C[C@@H]1CC[C@@H]2[C@H](COC[C@H](O)CN2C(=O)c2ccccn2)O1)NC1CCC1 | inactive
75 | S=c1[nH]nc(-c2ccccn2)n1/N=C/c1ccc(Cl)cc1 | inactive
76 | Cc1nc(S(=O)(=O)N(C)Cc2ccccc2)c(C#N)c(C)c1Cl | inactive
77 | O=C(COc1ncnc2ccccc12)NCCc1ccc(F)cc1 | inactive
78 | CC(C)(C)C(=O)C1=C(O)C(=O)N(c2ccccc2)C1c1ccccc1 (stereo unspecified) | inactive
79 | CC(=O)Oc1ccc2nc(/C=C/c3ccccc3)oc(=O)c2c1 | inactive
80 | Cc1cc(C(C)(C)C)cc(CN2CCN(S(=O)(=O)c3cccs3)CC2)c1O | inactive
81 | O=C(O)c1cc(NS(=O)(=O)c2ccc(NC3CCCCC3)c([N+](=O)[O-])c2)cc(C(=O)O)c1 | inactive
82 | O=C(CCn1cnc2ccccc21)N/N=C/c1ccc(O)cc1 | inactive
83 | Cc1cccc(CN2CCN(c3ncccn3)CC2)c1 | inactive
84 | CNC(=O)C1CCN(S(=O)(=O)c2c(C)noc2/C=C/c2cccc(C)c2)CC1 | inactive
85 | NC(=O)NN=C1CC2CC1C1C=CCC21 (stereo unspecified) | inactive
86 | COc1cccc(C(CNc2ccc(S(=O)(=O)N3CCN(C)CC3)cc2[N+](=O)[O-])N(C)C)c1 (stereo unspecified) | inactive
87 | COc1cc(/C=C2\SC(=S)N(NC(=O)c3cccc(O)c3)C2=O)ccc1O | inactive
88 | O=C(N/N=C/c1cccc([N+](=O)[O-])c1)c1ccc(Br)cc1 | inactive
89 | CCN(CCN(C)C)C(=O)C1CCN(S(=O)(=O)c2c(C)noc2/C=C/c2ccccc2F)CC1 | inactive
90 | COC(=O)Cc1ccc(NC(=S)NCc2ccc(OC)cc2)cc1 | inactive
91 | CNC(=O)C1Cc2c(-c3ccccc3Oc3ccccc3)ccnc2O1 (stereo unspecified) | inactive
